Laboratory results published in publication PMC12157728, “Green and Efficient Synthetic Protocol for 1,3,5-Triazine Derivatives with Anticancer Potential Against Colorectal Cancer” (Molecules, 2025).
Like-named read-outs stand apart in the source and are kept apart here.

Assays:
SW480 = test: MTS cytotoxicity assay, SW480 colorectal cancer cells; assay type: cell-based, human; conditions: for IC50: MTS, 24 h incubation, n = 3, >100 = no detectable effect at highest concentration, * = IC50 could not be determined (high variability or no consistent dose-response), read-out: Cytotoxicity IC50 ± SD, SW480
Method: (§1) The human colorectal cancer cell lines SW620, SW480 were obtained from the American Type Culture Collection (ATCC). Both cell lines were cultured in Dulbecco’s Modified Eagle Medium (DMEM) (Capricorn Scientific GmbH, Manassas, USA), which was supplemented with 10% fetal bovine serum (FBS) and 50 µg/mL of gentamicin. Cells were incubated at 37 °C in a humidified atmosphere containing 5% CO₂. The cultures were passaged approximately every three days upon reaching confluence using a 0.25% trypsin-EDTA solution, at a ratio of approximately 1:3 to 1:4. For the MTS assay, cells were seeded at a density of 10,000 cells per well in 96-well plates. After 24 h, compounds were added at five concentrations ([…]), and cells were incubated for an additional 24 h. Cytotoxicity was assessed using the CellTiter 96® AQueous One Solution Cell Proliferation Assay (Promega), following the manufacturer’s instructions. Absorbance was measured at 490 nm using a microplate reader.
(§2) The IC₅₀ values were determined relative to the untreated control cells (without test compounds). All experiments were performed in triplicate (n = 3). Compounds for which IC₅₀ values could not be reliably determined were excluded from quantitative analysis. […] Such compounds are reported as ‘>100µM’ or ‘>100µM*’, respectively, in the results.

SW620 = test: MTS cytotoxicity assay, SW620 colorectal cancer cells; assay type: cell-based, human; conditions: for IC50: Homo sapiens, SW-620, MTS, 24 h incubation, n = 3, >100 = no detectable effect at highest concentration, * = IC50 could not be determined (high variability or no consistent dose-response), read-out: Cytotoxicity IC50 ± SD, SW620
Method: as §1, §2

[1] = Lipophilicity by gradient RP-HPLC (C18, pH 7.4): CHI, chrom logD, PFI; assay type: physicochemical; parameters: key to PFI (Property Forecast Index): PFI = Chrom logD7.4 + number of aromatic rings; conditions: for chromatographic logD: C18 Hypersil GOLD reversed-phase HPLC column, pH 7.4, C18 column; for chromatographic logD / chrom logD (RP-HPLC): pH 7.4, Chrom logD = 0.0525 × CHI − 1.467; for chrom logD (RP-HPLC): C18 column; for CHI C18: C18 at pH 7.4; for PFI (Property Forecast Index): PFI = Chrom logD7.4 + #Ar, threshold 7
Text: (§3) All chromatographic experiments adhered to the protocols established by Valko and colleagues, which were implemented in our laboratory. Essentially, biochromatography facilitated the assessment of lipophilicity and phospholipid affinity, represented as Chromatographic Hydrophobicity Index (CHI) values, through a gradient elution experiment, comparing results with model substances. The Prominence-1 LC-2030C 3D HPLC system, operated via LabSolution software (v6.81, Kyoto, Japan), was utilized for all chromatographic analyses. Throughout the research, distinct chromatographic columns were employed: IAM.PC.DD2 (10 × 4.6 mm × 10.0 µm with a guard column; Regis Technologies; USA) and C18 Hypersil GOLD^TM (100 mm × 4.6 mm; 5.0 µm with a guard column; Thermo Scientific, Waltham, MA, USA). Each column was paired with guard columns featuring the same stationary phases as the main column. Mobile phase A consisted of a water solution of 50 mM ammonium acetate (VWR International, Leuven, Belgium), adjusted to physiological pH 7.4 using concentrated ammonia solution (Avantor Performance Materials Poland S.A., Gliwice, Poland). The mobile phase was prepared with ultrapure water from a Milli-Q water purification system (Merck Millipore, Darmstadt, Germany), achieving a resistivity of 18.2 MΩ. For phospholipid binding assessments, mobile phase B was HPLC grade acetonitrile (Chempur, Piekary Śląskie, Poland), with a linear gradient from 0 to 85% B over 5.25 min, then maintained at 85% ACN for 0.5 min. The mobile phase was delivered at a flow rate of 1.5 mL/min, with the IAM.PC.DD2 column temperature held steady at 30 °C. For lipophilicity evaluations, the solvents and flow rate mirrored those used in IAM chromatography. The C18 Hypersil GOLD^TM column was kept at 40 °C. Similarly, a linear gradient was applied from 0 to 5.25 min, but, in this instance, it ranged from 2 to 98% ACN, with the maximum phase B concentration sustained for 2.5 min. Dimethyl sulfoxide (Avantor Performance Materials Poland S.A., Poland) was employed to dissolve the target solutes, forming a solution with a concentration of 200 µg/mL. Detection occurred in the UV region at a wavelength of 190–300 nm. The injection volume was 5 μL, and each compound was analyzed in duplicate, with retention time variation below 0.5%. Retention times for the studied molecules and reference standards are detailed in the Supplementary Material, Tables S1 and S2.
Experimentally determined CHI values were converted to chrom logD using the following equation [53]:Chrom logD = 0.0525 × CHI − 1.467(1)
In addition, the Property Forecast Index (PFI), the sum of the number of aromatic rings(#Ar), and a lipophilicity measure are used to reflect the principle of simultaneous minimization of lipophilicity and aromaticity, which supports the selection of oral clinical candidates in GKS [47].PFI = Chrom logD7.4 + #Ar(2)

[2] = Phospholipid affinity by IAM-HPLC (IAM.PC.DD2 column); assay type: physicochemical; conditions: pH 7.4, phospholipidosis threshold >50
Text: as §3

Compound | IC50 (SW480; Homo sapiens) | IC50 (SW620) | chromatographic logD [1] | chrom logD (RP-HPLC) [1] | Cytotoxic activity in words, SW480 (SW480) | Cytotoxic activity in words, SW620 (SW620) | CHI IAM (IAM-HPLC) [2] | CHI C18 [1] | PFI (Property Forecast Index) [1] | IC50 (SW480)
O=c1[nH]cc(F)c(=O)[nH]1 [5-fluorouracil, reference compound] | 15.5 ± 7.83 µM | 21.7 ± 2.75 µM | – | – | – | – | – | – | – | –
Cl.Clc1ccccc1Nc1nc(NCCc2ccccc2)nc(N2CCOCC2)n1 [Compound 3, N^2-(2-chlorophenyl)-6-morpholino-N^4-phenethyl-1,3,5-triazine-2,4-diamine hydrochloride] | > 100 µM | > 100 µM | 3.95 | 3.947 | limited cytotoxic potential | limited cytotoxic potential | 55.97 | – | – | –
Cl.Clc1ccccc1Nc1nc(Nc2ccccc2)nc(N2CCOCC2)n1 [Compound 4, N^2-(2-chlorophenyl)-6-morpholino-N^4-phenyl-1,3,5-triazine-2,4-diamine hydrochloride] | > 100 µM | 36.1 ± 46.5 µM | 4.1 | 4.098 | – | – | 46.34 | 106 | 7.10 | –
Cl.Clc1ccccc1Nc1nc(NCc2ccccc2)nc(N2CCOCC2)n1 [Compound 5, N^2-benzyl-N^4-(2-chlorophenyl)-6-morpholino-1,3,5-triazine-2,4-diamine hydrochloride] | 43.1 µM | 32.8 ± 23.4 µM | 3.95 | 3.947 | – | – | 46.45 | 103.1 | 6.95 | 43.4 ± 12.2 µM
Cl.Clc1ccccc1Nc1nc(NCCCc2ccccc2)nc(N2CCOCC2)n1 [Compound 6, N^2-(2-chlorophenyl)-6-morpholino-N^4-(3-phenylpropyl)-1,3,5-triazine-2,4-diamine hydrochloride] | > 100 µM | > 100 µM | 4.71 | 4.706 | limited cytotoxic potential | limited cytotoxic potential | 51.63 | 117.6 | 7.71 | –
Cl.Fc1ccc(N2CCN(CCNc3nc(Nc4ccccc4Cl)nc(N4CCOCC4)n3)CC2)cc1 [Compound 7, N^2-(2-chlorophenyl)-N^4-(2-(4-(4-fluorophenyl)piperazin-1-yl)ethyl)-6-morpholino-1,3,5-triazine-2,4-diamine hydrochloride] | > 100 µM | – | 4.44 | 4.443 | limited cytotoxic potential | limited cytotoxic potential | 49.59 | 112.6 | 7.44 | –
Cl.Clc1ccccc1Nc1nc(N2CCOCC2)nc(N2CCN(c3ccccc3)CC2)n1 [Compound 8, N-(2-chlorophenyl)-4-morpholino-6-(4-phenylpiperazin-1-yl)-1,3,5-triazin-2-amine hydrochloride] | 20.6 ± 24.9 µM | – | 4.15 | 4.148 | – | – | 47.79 | 107 | 7.15 | –
Cl.Clc1ccccc1Nc1nc(N2CCOCC2)nc(N2CCN(c3nsc4ccccc34)CC2)n1 [Compound 9, 4-(4-(benzo[d]isothiazol-3-yl)piperazin-1-yl)-N-(2-chlorophenyl)-6-morpholino-1,3,5-triazin-2-amine hydrochloride] | > 100 µM | 22.1 ± 17.3 µM | 4.23 | 4.226 | inactive | some activity | 48.02 | 108.4 | 7.23 | –
Cl.Clc1ccccc1Nc1nc(NCCNc2ccccc2)nc(N2CCOCC2)n1 [Compound 10, N^2-(2-chlorophenyl)-6-morpholino-N^4-(2-(phenylamino)ethyl)-1,3,5-triazine-2,4-diamine hydrochloride] | > 100 µM | – | 3.94 | 3.936 | limited cytotoxic potential | limited cytotoxic potential | 44.55 | 102.9 | 6.94 | –
Cl.Clc1ccccc1Nc1nc(NCCOc2ccccc2)nc(N2CCOCC2)n1 [Compound 11, N^2-(2-chlorophenyl)-6-morpholino-N^4-(2-phenoxyethyl)-1,3,5-triazine-2,4-diamine hydrochloride] | – | 5.85 ± 14.3 µM | 4.01 | 4.012 | – | – | 45.92 | 104.4 | 7.01 | –
